Here are results for two compounds from article PMC12782889, “A GmNRF5a–GmCERK1–GmCAK1 module mediates chitin/chitosan‐triggered immune response in soybean” (Journal of Integrative Plant Biology, 2025).

One assay concerns GmNFR5a homodimer. Nature of the assay: Co-immunoprecipitation of GFP-tagged GmNFR5a with HA-tagged GmNFR5a in N. benthamiana. It counts as cell-based, soybean (Glycine max). Conditions: Co-IP; N. benthamiana leaves treated 50 mg/L for 5 min. On the procedure: (§1) Nicotiana benthamiana leaves were harvested 48 h post inoculation (hpi) after agroinfiltration. Samples were ground in liquid nitrogen and incubated for 30 min in a lysis buffer (50 mM Tris-HCl pH 8.0, 150 mM NaCl, 1.0% (v/v) NP-40, 0.1% SDS (w/v) and 0.1% protease inhibitor cocktail ([…]; Sigma, St. Louis, MI, USA)). Supernatant was collected by centrifugation at 21,000 g for 15 min and then incubated with GFP-trap beads (item No.: gta-20; Chromotek, Hauppauge, NY, USA) at 4°C for 2 h. The GFP-trap beads were pelleted by centrifugation at 500 g for 2 min and washed with lysis buffer at least four times. Proteins were eluted by boiling the beads in a protein loading buffer for 10 min and detected by immunoblot analysis with anti-GFP (Cat No. M20004; Abmart, Shanghai, China) or anti-HA (Cat No. M20013; Abmart, Shanghai, China).

A further assay concerns Phytophthora sojae P6497. Nature of the assay: P. sojae infection of pretreated soybean etiolated hypocotyls. Conditions: for biomass of P. sojae: dp6, 50 mg/L, 24 h before inoculation with zoospores, etiolated hypocotyls, 48 hpi, genomic DNA qPCR, vs mock dH2O. It counts as in vivo, Phytophthora sojae on soybean (Glycine max). The protocol:
For soybean etiolated hypocotyls inoculation assays, etiolated hypocotyls of soybean (cultivar Williams) were inoculated with P. sojae zoospore suspensions (100 zoospores). Infected etiolated hypocotyls were maintained at 25°C in the dark for 2 d, photographed and collected for biomass detection. For soybean hairy‐root inoculation assays, transgenic hairy roots were soaked in CTOS/CSOS (50 mg/L) or mock (dH2O) for 12 h and then were infected with red fluorescent protein (RFP)‐labeled P. sojae strain P6497, and fluorescence was visualized in the infected area of soybean hairy root and the biomass of P. sojae was determined by qRT‐PCR at 48 hpi.
Background: Real-time PCR tracks product formation cycle by cycle.

Another assay addresses GmNFR5a^ECD (Glycine max, UniProt A5YJV9). Put plainly: Microscale thermophoresis (MST) binding to GmNFR5a^ECD. Also noted: species or system soybean (Glycine max). Particulars: ligand dp6, His-tagged protein purified from Pichia pastoris, read-out: dissociation constant (K D) with GmNFR5a^ECD. From the text:
The ectodomains of GmCERK1, GmNFR5a, and mutants were cloned into the yeast expression vector pPICZαA (Thermo Fisher Scientific, Shanghai, China) through the double digestion and ligation using the restriction endonuclease EcoRI/XbaI (NEB, Suzhou, China) and T4 ligase. Then, the linearized recombinant plasmid pPICZαA‐GmCERK1 and pPICZαA‐GmNFR5a were transformed into P. pastoris X‐33. The positive colonies were selected on YPDS medium (1% w/v yeast extract, 2% w/v peptone, 2% w/v glucose, 2% w/v agar, 100 μg/mL antibiotic Zeocin (Thermo Fisher Scientific)) plates and verified by direct DNA sequencing. Protein expression was carried out initially in BMGY media (100 mM potassium phosphate pH 6.0, 1.34% w/v YNB, 4 × 10^−5% w/v biotin, 1% v/v glycerol) at 28°C with shaking (180 rpm) until the OD600 reached 2.0–6.0. The cell pellet was transferred into BMMY medium (100 mM potassium phosphate pH 6.0, 1.34% w/v YNB, 4 × 10^−5% w/v biotin, 0.5% v/v methanol) and continuously supplied with the addition of 0.5% (v/v) methanol every day for 5 d. […]
GmCERK1^ECD, GmNFR5a^ECD, and all mutants were labeled with a fluorescent dye using the Monolith Protein Labeling Kit RED‐NHS second Generation (MO‐L011). […] The data were analyzed and fitted by plotting ligand concentrations against bound fractions using the MO.Affinity Analysis v3.0.5 software. […]

A further assay relates to GmCERK1 homodimer. Nature of the assay: Co-immunoprecipitation of GmCERK1-GFP with GmCERK1-HA in N. benthamiana. Conditions: Co-IP; N. benthamiana leaves treated 50 mg/L for 5 min. It counts as cell-based, soybean (Glycine max). The protocol:
as §1

In the next assay the target is T1, AtCERK1^ECD (Arabidopsis thaliana, UniProt A8R7E6).
T1 construct: ectodomain of AtCERK1 (aa25–224); made in house; host or cells: Pichia pastoris X-33
T1 sequence (A8R7E6 25-224): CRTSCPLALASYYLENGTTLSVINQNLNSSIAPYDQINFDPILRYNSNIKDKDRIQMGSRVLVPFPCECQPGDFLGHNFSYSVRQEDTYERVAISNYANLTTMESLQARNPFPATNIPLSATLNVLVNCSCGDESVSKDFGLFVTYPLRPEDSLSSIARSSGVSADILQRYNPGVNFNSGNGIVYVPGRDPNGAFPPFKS
Put plainly: Microscale thermophoresis (MST) binding to AtCERK1^ECD (positive control). Conditions: ligand dp6, protein purified from Pichia pastoris, read-out: dissociation constant (K D) with AtCERK1^ECD. (Microscale thermophoresis detects binding through changes in fluorescence in a small temperature gradient.)

Assay [1] has as its system GmCERK1-GmCAK1 interaction. Put plainly: Co-immunoprecipitation of GmCERK1-GFP with GmCAK1-HA in N. benthamiana. It counts as cell-based, soybean (Glycine max). Conditions: Co-IP; N. benthamiana leaves treated 50 mg/L for 5 min. The protocol: as §1

GmNFR5a^ECD, sequence (A5YJV9 entry or part of it): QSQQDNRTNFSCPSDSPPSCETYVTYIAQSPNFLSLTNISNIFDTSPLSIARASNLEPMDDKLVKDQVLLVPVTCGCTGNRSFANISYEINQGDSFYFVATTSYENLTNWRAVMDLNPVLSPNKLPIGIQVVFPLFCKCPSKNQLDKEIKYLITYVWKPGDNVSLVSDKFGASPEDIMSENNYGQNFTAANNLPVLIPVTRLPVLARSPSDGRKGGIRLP

As to `N[C@H]1[C@H](O[C@H]2[C@H](O)[C@@H](N)[C@H](O[C@H]3[C@H](O)[C@@H](N)[C@H](O[C@H]4[C@H](O)[C@@H](N)[C@H](O[C@H]5[C@H](O)[C@@H](N)[C@H](O[C@H]6[C@H](O)[C@@H](N)C(O)O[C@@H]6CO)O[C@@H]5CO)O[C@@H]4CO)O[C@@H]3CO)O[C@@H]2CO)O[C@H](CO)[C@@H](O)[C@@H]1O` (stereo partly shown) [CSOS (dp6), chitosan oligosaccharide], the GmNFR5a homodimer formation result with GmNFR5a homodimer is “strong homodimer”. Moreover, the “biomass of P. sojae” value with Phytophthora sojae P6497 is listed as “significantly lower”. Also, in the assay with Phytophthora sojae P6497 (soybean etiolated hypocotyls, P. sojae (Figure 1E, F)), the “plant resistance elicited, compared with CTOS” value is reported as “somewhat weaker”. Further, the values for the Kd on GmNFR5a^ECD and at AtCERK1^ECD were 7.04 ± 2.62 mM and 2.73 ± 0.43 mM, respectively. Besides, in the assay with GmCERK1 homodimer, the “GmCERK1-GFP / GmCERK1-HA interaction (homodimer)” value is “strong interaction”. Further, the “interaction between GmCERK1 and GmCAK1” value in assay [1] was “diminished”.
`CC(=O)N[C@H]1[C@H](O[C@H]2[C@H](O)[C@@H](NC(C)=O)[C@H](O[C@H]3[C@H](O)[C@@H](NC(C)=O)C(O)O[C@@H]3CO)O[C@@H]2CO)O[C@H](CO)[C@@H](O[C@@H]2O[C@H](CO)[C@@H](O[C@@H]3O[C@H](CO)[C@@H](O[C@@H]4O[C@H](CO)[C@@H](O)[C@H](O)[C@H]4NC(C)=O)[C@H](O)[C@H]3NC(C)=O)[C@H](O)[C@H]2NC(C)=O)[C@@H]1O` (stereo partly shown) [CTOS (dp6), chitin oligosaccharide]: the GmNFR5a homodimer formation result in the assay with GmNFR5a homodimer was “strong homodimer”. In addition, the “biomass of P. sojae” value in the assay on Phytophthora sojae P6497 is reported as “significantly lower”. Further, the Kd stood at 20.5 ± 6.07 mM on GmNFR5a^ECD and 0.66 ± 0.27 mM at AtCERK1^ECD. In the assay with GmCERK1 homodimer, the “GmCERK1-GFP / GmCERK1-HA interaction (homodimer)” value is given as “strong interaction”. For the same compound, the “interaction between GmCERK1 and GmCAK1” value in assay [1] is “diminished”.
